Test results: paper PMC2801561 (Cell, 2009)

T1: TIP47 (endogenous, K562) (human (endogenous in K562)), O60664
T1 chain: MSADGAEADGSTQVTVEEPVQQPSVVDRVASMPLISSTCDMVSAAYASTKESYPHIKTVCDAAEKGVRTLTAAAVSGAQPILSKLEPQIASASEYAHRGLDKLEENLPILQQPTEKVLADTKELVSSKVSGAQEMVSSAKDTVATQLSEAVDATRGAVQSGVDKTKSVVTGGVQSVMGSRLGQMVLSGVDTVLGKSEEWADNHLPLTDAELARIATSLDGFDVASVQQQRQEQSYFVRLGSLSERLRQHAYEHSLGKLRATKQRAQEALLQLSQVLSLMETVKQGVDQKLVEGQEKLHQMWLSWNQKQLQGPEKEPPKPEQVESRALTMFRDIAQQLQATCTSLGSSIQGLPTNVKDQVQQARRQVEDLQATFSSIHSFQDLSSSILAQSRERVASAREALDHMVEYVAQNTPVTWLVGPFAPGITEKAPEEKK


How the values were obtained:
[1] = target: GST-RhoBTB3 Rho domain (residues 1-220) (Homo sapiens, UniProt O94955, N138D); experiment: [γ-32P]ATP hydrolysis; format: biochemical; details: MgCl2; labelled compound; 20 nM protein
Chain of GST-RhoBTB3 Rho domain (residues 1-220) (O94955 1-220 N138D): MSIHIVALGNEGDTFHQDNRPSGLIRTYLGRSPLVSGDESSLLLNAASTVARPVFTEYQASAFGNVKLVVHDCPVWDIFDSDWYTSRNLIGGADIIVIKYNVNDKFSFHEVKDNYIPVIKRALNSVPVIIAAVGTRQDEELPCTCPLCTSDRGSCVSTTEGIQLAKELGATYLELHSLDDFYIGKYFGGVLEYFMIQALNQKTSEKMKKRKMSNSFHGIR

[2] = target: T1, TIP47 (endogenous, K562) (human …); experiment: native gel or EMSA; details: remark: other sources report otherwise

Row | Molecule | [γ-32P]ATP hydrolysis [1] | stoichiometry N [2]
1 | Nc1ncnc2c1ncn2[C@@H]1O[C@H](COP(=O)(O)OP(=O)(O)OP(=O)(O)O)[C@@H](O)[C@H]1O [ATP] | reverted to the D found in most other small GTPases (N138D), significantly less binding | –
2 | TIP47 (endogenous, K562), O60664 1-434 (natural protein) MSADGAEADGSTQVTVEEPVQQPSVVDRVASMPLISSTCDMVSAAYASTKESYPHIKTVCDAAEKGVRTLTAAAVSGAQPILSKLEPQIASASEYAHRGLDKLEENLPILQQPTEKVLADTKELVSSKVSGAQEMVSSAKDTVATQLSEAVDATRGAVQSGVDKTKSVVTGGVQSVMGSRLGQMVLSGVDTVLGKSEEWADNHLPLTDAELARIATSLDGFDVASVQQQRQEQSYFVRLGSLSERLRQHAYEHSLGKLRATKQRAQEALLQLSQVLSLMETVKQGVDQKLVEGQEKLHQMWLSWNQKQLQGPEKEPPKPEQVESRALTMFRDIAQQLQATCTSLGSSIQGLPTNVKDQVQQARRQVEDLQATFSSIHSFQDLSSSILAQSRERVASAREALDHMVEYVAQNTPVTWLVGPFAPGITEKAPEEKK | – | 2
